This note sets out measurements from patent EP0486595B1, “Use of a coleus extract for skin pigmentation” (LVMH RECHERCHE, priority 1989, dated 1991).

Assay [1] has as its system mélanocytes murins. Nature of the assay: Melanin formation (melanogenesis stimulation) in cultured melanocytes, optical density at 475 nm. It is filed as cell-based. The following applies: for Mélanine >g pour 10⁶ mélanocytes / A: concentration 10 >g/ml; for A: relative to β-MSH 2.10⁻⁸ M. The text has this: (§1) Des mélanocytes murins sont cultivés sur un milieu approprié de manière classique.
Au jour J = 0, le produit à tester est introduit dans le milieu de culture. […]
(§2) On procède à la lecture de la densité optique sur un spectrophotomètre à 475 nm, ce qui permet d'évaluer la quantité de mélanine formée par comparaison à la densité optique d'une solution de mélanine de concentration connue.
(§3) On procède également au comptage des cellules, et on calcule le taux de mélanine formée par cellule, par rapport à une culture témoin, sans addition de produit à tester.
(§4) L'extrait Coleus 5B, selon l'exemple 5b est testé en comparaison avec de la forskoline seule, utilisée à concentration équivalente, et avec un témoin positif consistant en 10⁻⁸ mole de β-MSH. Ainsi, on introduit au jour J=0 dans le milieu de culture de la forskoline à la concentration de 0,1 >g/ml.
(§5) Dans une autre culture, on introduit l'extrait de Coleus à une concentration déterminée de façon que le taux en forskoline soit également d'environ 0,1 >g/ml.
(§6) L'activité A de la stimulation de la mélanogénèse par les produits selon l'invention est calculée par la formule suivante : [formula] dans laquelle les grandeurs q représentent les quantités de mélanine formée qp = culture recevant le produit à tester q₊ = culture recevant la βMSH qo = culture témoin ne recevant aucun produit.
(§7) Par ailleurs, on a testé dans des conditions analogues les extraits de Coleus 5A et 5C respectivement obtenus par extraction par un mélange éthanol-eau 80:20 et par le dichlorométhane. On notera toutefois qu'il a été pris comme témoin positif une culture recevant de la β-MSH à la concentration de 2.10⁻⁸M.
(§8) On opère comme à l'exemple 6. La combinaison IBMX plus extrait de Coleus est testée en comparaison avec l'IBMX et l'extrait de Coleus seul, de même qu'avec la β-MSH à la concentration de 2.10⁻⁸ M prise comme témoin positif.

The subject of assay [2] is mélanocytes murins. Described as above. The following applies: for Activité A en % / A: 100 by definition; for Mélanine >g pour 10⁶ mélanocytes / A: β-MSH 2.10⁻⁸ M. Type of assay: cell-based.
Excerpt: as §1
Au jour J = 0, le produit à tester est introduit dans le milieu de culture.
Au jour J = 5, on prélève les cellules que l'on isole par centrifugation et on récupère le culot cellulaire que l'on dissout dans de la soude 0,5 N.
as §2, §3, §4, §5, §6, §7, §8

Consider `C=C[C@@]1(C)CC(=O)[C@]2(O)[C@@]3(C)[C@@H](O)CCC(C)(C)[C@@H]3[C@H](O)[C@H](OC(C)=O)[C@@]2(C)O1` [Forskoline, forskoline], for which the “Mélanine formée en >g pour 10⁶ cellules” value with mélanocytes murins [1] (J = 5, forskoline 0,1 >g/ml, extract dosed to a forskoline level of about 0,1 >g/ml) is 92 ± 3 >g pour 10⁶ cellules. Moreover, the “Activité A en %” value in the assay with mélanocytes murins [1] (J = 5, forskoline level about 0,1 >g/ml, relative to β-MSH 10⁻⁸ mole = 100) is given as 151%.
Turning to `CC(C)Cn1c(=O)n(C)c(=O)c2[nH]cnc21` [IBMX, 3-isobutyl-1-méthylxanthine], in the assay on mélanocytes murins [1] (J = 4), the “Mélanine >g pour 10⁶ mélanocytes” value was 64 +/-0 >g pour 10⁶ mélanocytes and the A entry is on record as “+ 39”. In the assay with mélanocytes murins [1] (J = 5), the “Mélanine >g pour 10⁶ mélanocytes” value is 103 +/-2 >g pour 10⁶ mélanocytes and the A entry is on record as “+ 35”.
Consider β-MSH, for which the “Activité A en %” value in the assay with mélanocytes murins [2] (2.10⁻⁸M) amounted to 100%; in the assay on mélanocytes murins [2] (J = 5, 10⁻⁸ mole de β-MSH) it was 100%. The “Mélanine formée en >g pour 10⁶ cellules” value in the assay on mélanocytes murins [2] (2.10⁻⁸M, Table II positive control) is recorded as 179 ± 4 >g pour 10⁶ cellules; in the assay on mélanocytes murins [2] (J = 5, positive control 10⁻⁸ mole de β-MSH) it was 70 >g pour 10⁶ cellules. Further, the “Mélanine >g pour 10⁶ mélanocytes” value in the assay with mélanocytes murins [2] (J = 4) is listed as 119 +/-7 >g pour 10⁶ mélanocytes; in the assay on mélanocytes murins [2] (J = 5), 200 +/-2 >g pour 10⁶ mélanocytes. For the same compound, the A result in the assay with mélanocytes murins [2] (J = 4) and in the assay on mélanocytes murins [2] (J = 5) was “+ 100” throughout.
